Experimental data published in ChEMBL document CHEMBL1671859, “bla(IMP-4) in different genetic contexts in Enterobacteriaceae isolates from Australia” (2008).
Converted amounts (≈) assume the structure as drawn.

Experiments:
Assay type in all cases: functional
Serratia marcescens [1] = experiment: Antibacterial activity against Serratia marcescens isolate Sm220 harboring IncA/C plasmid and blaIMP-4-qacG2-aacA4-catB3 array by Etest method
Serratia marcescens [2] = experiment: Antibacterial activity against Serratia marcescens isolate Sm211 harboring IncA/C plasmid and blaIMP-4-qacG2-aacA4-catB3 array by Etest method
Klebsiella pneumoniae [3] = experiment: Antibacterial activity against Klebsiella pneumoniae isolate Kp38009 harboring IncL/M plasmid and blaIMP-4-qacG2-aacA4-catB3 array by Etest method
Klebsiella pneumoniae [4] = experiment: Antibacterial activity against Klebsiella pneumoniae isolate Kp204 harboring IncA/C plasmid and blaIMP-4-qacG2-aacA4-catB3 array by Etest method
Morganella morganii [5] = experiment: Antibacterial activity against Morganella morganii isolate Mm1229 harboring IncL/M plasmid and blaIMP-4-qacG2-aacA4-catB3 array by Etest method
Citrobacter freundii = experiment: Antibacterial activity against Citrobacter freundii isolate Cf1614 harboring IncL/M plasmid and blaIMP-4-qacG2-aacA4-catB3 array by Etest method
Escherichia coli [6] = experiment: Antibacterial activity against Escherichia coli isolate Ec211 harboring IncA/C plasmid and blaIMP-4-qacG2-aacA4-catB3 array by Etest method
Acinetobacter baumannii = experiment: Antibacterial activity against Acinetobacter baumannii isolate AbN450 harboring […]-qacG2-aacA4-catB3 array by Etest method
Serratia marcescens [7] = experiment: Antibacterial activity against Serratia marcescens isolate Sm203 harboring IncA/C plasmid and blaIMP-4-qacG2-aacA4-catB3 array by Etest method
Klebsiella oxytoca [8] = experiment: Antibacterial activity against Klebsiella oxytoca Ko238 transconjugant harboring IncA/C plasmid and blaIMP-4-qacG2-aacA4-catB3 array by Etest method
Klebsiella pneumoniae [9] = experiment: Antibacterial activity against Klebsiella pneumoniae isolate Kp266 harboring IncA/C plasmid and blaIMP-4-qacG2-aacA4-catB3 array by Etest method
Enterobacter cloacae [10] = experiment: Antibacterial activity against Enterobacter cloacae isolate El216 harboring IncA/C plasmid and blaIMP-4-qacG2-aacA4-catB3 array by Etest method
Citrobacter amalonaticus = experiment: Antibacterial activity against Citrobacter amalonaticus isolate Ca1614 harboring IncL/M plasmid and blaIMP-4-qacG2-aacA4-catB3 array by Etest method
Morganella morganii [11] = experiment: Antibacterial activity against Morganella morganii isolate Mm38009 harboring IncL/M plasmid and blaIMP-4-qacG2-aacA4-catB3 array by Etest method
Serratia marcescens [12] = experiment: Antibacterial activity against Serratia marcescens isolate Sm2723 harboring IncL/M plasmid and blaIMP-4-qacG2-aacA4-catB3 array by Etest method
Acinetobacter = experiment: Antibacterial activity against Acinetobacter isolate A74510 harboring blaIMP-4-qacG2-aacA4-catB3 array by Etest method
Enterobacter cloacae [13] = experiment: Antibacterial activity against Enterobacter cloacae El3799 transconjugant harboring IncL/M plasmid and blaIMP-4-qacG2-aacA4-catB3 array by Etest method
Klebsiella oxytoca [14] = experiment: Antibacterial activity against Klebsiella oxytoca isolate Ko0426 harboring IncL/M plasmid and blaIMP-4-qacG2-aacA4-catB3 array by Etest method
Citrobacter koseri [15] = experiment: Antibacterial activity against Citrobacter koseri isolate Ck211 harboring IncA/C plasmid and blaIMP-4-qacG2-aacA4-catB3 array by Etest method
Citrobacter koseri [16] = experiment: Antibacterial activity against Citrobacter koseri Ck211 transconjugant harboring IncA/C plasmid and blaIMP-4-qacG2-aacA4-catB3 array by Etest method
Klebsiella pneumoniae [17] = experiment: Antibacterial activity against Klebsiella pneumoniae Kp3799 transconjugant harboring IncL/M plasmid and blaIMP-4-qacG2-aacA4-catB3 array by Etest method
Klebsiella pneumoniae [18] = experiment: Antibacterial activity against Klebsiella pneumoniae isolate Kp149 harboring IncA/C plasmid and blaIMP-4-qacG2-aacA4-catB3 array by Etest method
Klebsiella oxytoca [19] = experiment: Antibacterial activity against Klebsiella oxytoca Ko1156 transconjugant harboring IncL/M plasmid and blaIMP-4-qacG2-aacA4-catB3 array by Etest method
Serratia marcescens [20] = experiment: Antibacterial activity against Serratia marcescens Sm265 transconjugant harboring IncA/C plasmid and blaIMP-4-qacG2-aacA4-catB3 array by Etest method
Klebsiella pneumoniae [21] = experiment: Antibacterial activity against Klebsiella pneumoniae Kp204 transconjugant harboring IncA/C plasmid and blaIMP-4-qacG2-aacA4-catB3 array by Etest method
Escherichia coli [22] = experiment: Antibacterial activity against Escherichia coli Ec158 transconjugant harboring IncA/C plasmid and blaIMP-4-qacG2-aacA4-catB3 array by Etest method
Klebsiella pneumoniae [23] = experiment: Antibacterial activity against Klebsiella pneumoniae isolate Kp7564 harboring IncL/M plasmid and blaIMP-4-qacG2-aacA4-catB3 array by Etest method
Klebsiella pneumoniae [24] = experiment: Antibacterial activity against Klebsiella pneumoniae isolate Kp2730 harboring IncL/M plasmid and blaIMP-4-qacG2-aacA4-catB3 and dfrA12-orfF-aadA2 arrays by Etest method
Citrobacter youngae = experiment: Antibacterial activity against Citrobacter youngae CyB38 transconjugant harboring blaIMP-4-qacG2-aacA4-catB3 array by Etest method
Escherichia coli [25] = experiment: Antibacterial activity against Escherichia coli Ec221 transconjugant harboring IncA/C plasmid and blaIMP-4-qacG2-aacA4-catB3 array by Etest method
Klebsiella pneumoniae [26] = experiment: Antibacterial activity against Klebsiella pneumoniae isolate Kp3799 harboring IncL/M plasmid and blaIMP-4-qacG2-aacA4-catB3 array by Etest method
Escherichia coli [27] = experiment: Antibacterial activity against Escherichia coli isolate Ec9381 harboring IncL/M plasmid and blaIMP-4-qacG2-aacA4-catB3 array by Etest method
Enterobacter cloacae [28] = experiment: Antibacterial activity against Enterobacter cloacae isolate El3799 harboring IncL/M plasmid and blaIMP-4-qacG2-aacA4-catB3 array by Etest method
Klebsiella pneumoniae [29] = experiment: Antibacterial activity against Klebsiella pneumoniae isolate Kp4614
Klebsiella pneumoniae [30] = experiment: Antibacterial activity against Klebsiella pneumoniae isolate Kp1239 harboring IncL/M plasmid and blaIMP-4-qacG2-aacA4-catB3 array by Etest method
Klebsiella oxytoca [31] = experiment: Antibacterial activity against Klebsiella oxytoca isolate Ko238 harboring IncA/C plasmid and blaIMP-4-qacG2-aacA4-catB3 array by Etest method
Escherichia coli [32] = experiment: Antibacterial activity against Escherichia coli isolate Ec221 harboring IncA/C plasmid and blaIMP-4-qacG2-aacA4-catB3 array by Etest method
Enterobacter cloacae [33] = experiment: Antibacterial activity against Enterobacter cloacae isolate El3518 harboring IncL/M plasmid and blaIMP-4-qacG2-aacA4-catB3 array by Etest method
Klebsiella pneumoniae [34] = experiment: Antibacterial activity against Klebsiella pneumoniae Kp2730 transconjugant harboring IncL/M plasmid and blaIMP-4-qacG2-aacA4-catB3 and dfrA12-orfF-aadA2 arrays by Etest method
Escherichia coli [35] = experiment: Antibacterial activity against Escherichia coli isolate Ec158 harboring IncA/C plasmid and blaIMP-4-qacG2-aacA4-catB3 array by Etest method
Klebsiella oxytoca [36] = experiment: Antibacterial activity against Klebsiella oxytoca Ko0426 transconjugant harboring IncL/M plasmid and blaIMP-4-qacG2-aacA4-catB3 array by Etest method
Klebsiella pneumoniae [37] = experiment: Antibacterial activity against Klebsiella pneumoniae Kp149 transconjugant harboring IncA/C plasmid and blaIMP-4-qacG2-aacA4-catB3 array by Etest method

Compound: GENTAMICIN
- MIC (Serratia marcescens [1]): > 8 µg/mL
- MIC (Serratia marcescens [2]): > 8 µg/mL
- MIC (Klebsiella pneumoniae [3]): > 8 µg/mL
- MIC (Klebsiella pneumoniae [4]): < 2 µg/mL
- MIC (Morganella morganii [5]): > 8 µg/mL
- MIC (Citrobacter freundii): > 8 µg/mL
- MIC (Escherichia coli [6]): > 8 µg/mL
- MIC (Acinetobacter baumannii): > 8 µg/mL
- MIC (Serratia marcescens [7]): > 8 µg/mL
- MIC (Klebsiella oxytoca [8]): < 2 µg/mL
- MIC (Klebsiella pneumoniae [9]): > 8 µg/mL
- MIC (Enterobacter cloacae [10]): > 8 µg/mL
- MIC (Citrobacter amalonaticus): > 8 µg/mL
- MIC (Morganella morganii [11]): > 8 µg/mL
- MIC (Serratia marcescens [12]): > 8 µg/mL
- MIC (Acinetobacter): > 8 µg/mL
- MIC (Enterobacter cloacae [13]): > 8 µg/mL
- MIC (Klebsiella oxytoca [14]): > 8 µg/mL
- MIC (Citrobacter koseri [15]): > 8 µg/mL
- MIC (Citrobacter koseri [16]): > 8 µg/mL
- MIC (Klebsiella pneumoniae [17]): > 8 µg/mL
- MIC (Klebsiella pneumoniae [18]): > 8 µg/mL
- MIC (Klebsiella oxytoca [19]): > 8 µg/mL
- MIC (Serratia marcescens [20]): < 2 µg/mL
- MIC (Klebsiella pneumoniae [21]): < 2 µg/mL
- MIC (Escherichia coli [22]): > 8 µg/mL
- MIC (Klebsiella pneumoniae [23]): > 8 µg/mL
- MIC (Klebsiella pneumoniae [24]): > 8 µg/mL
- MIC (Citrobacter youngae): < 2 µg/mL
- MIC (Escherichia coli [25]): < 2 µg/mL
- MIC (Klebsiella pneumoniae [26]): > 8 µg/mL
- MIC (Escherichia coli [27]): > 8 µg/mL
- MIC (Enterobacter cloacae [28]): > 8 µg/mL
- MIC (Klebsiella pneumoniae [29]): > 8 µg/mL
- MIC (Klebsiella pneumoniae [30]): > 8 µg/mL
- MIC (Klebsiella oxytoca [31]): 4 µg/mL
- MIC (Escherichia coli [32]): < 2 µg/mL
- MIC (Enterobacter cloacae [33]): > 8 µg/mL
- MIC (Klebsiella pneumoniae [34]): > 8 µg/mL
- MIC (Escherichia coli [35]): > 8 µg/mL
- MIC (Klebsiella oxytoca [36]): > 8 µg/mL
- MIC (Klebsiella pneumoniae [37]): > 8 µg/mL

Compound: NC[C@H]1O[C@H](O[C@H]2[C@H](O)[C@@H](O[C@H]3O[C@H](CO)[C@@H](O)[C@H](N)[C@H]3O)[C@H](N)C[C@@H]2N)[C@H](N)C[C@@H]1O [TOBRAMYCIN]
- MIC (Serratia marcescens [1]): > 8 µg/mL
- MIC (Serratia marcescens [2]): > 8 µg/mL
- MIC (Klebsiella pneumoniae [3]): 8 µg/mL (≈ 17.1 µM)
- MIC (Klebsiella pneumoniae [4]): 8 µg/mL (≈ 17.1 µM)
- MIC (Morganella morganii [5]): > 8 µg/mL
- MIC (Citrobacter freundii): > 8 µg/mL
- MIC (Escherichia coli [6]): > 8 µg/mL
- MIC (Acinetobacter baumannii): > 8 µg/mL
- MIC (Serratia marcescens [7]): > 8 µg/mL
- MIC (Klebsiella oxytoca [8]): 8 µg/mL (≈ 17.1 µM)
- MIC (Klebsiella pneumoniae [9]): > 8 µg/mL
- MIC (Enterobacter cloacae [10]): > 8 µg/mL
- MIC (Citrobacter amalonaticus): > 8 µg/mL
- MIC (Morganella morganii [11]): 4 µg/mL (≈ 8.56 µM)
- MIC (Serratia marcescens [12]): > 8 µg/mL
- MIC (Acinetobacter): > 8 µg/mL
- MIC (Enterobacter cloacae [13]): 8 µg/mL (≈ 17.1 µM)
- MIC (Klebsiella oxytoca [14]): > 8 µg/mL
- MIC (Citrobacter koseri [15]): 8 µg/mL (≈ 17.1 µM)
- MIC (Citrobacter koseri [16]): 8 µg/mL (≈ 17.1 µM)
- MIC (Klebsiella pneumoniae [17]): 8 µg/mL (≈ 17.1 µM)
- MIC (Klebsiella pneumoniae [18]): > 8 µg/mL
- MIC (Klebsiella oxytoca [19]): 8 µg/mL (≈ 17.1 µM)
- MIC (Serratia marcescens [20]): 8 µg/mL (≈ 17.1 µM)
- MIC (Klebsiella pneumoniae [21]): 8 µg/mL (≈ 17.1 µM)
- MIC (Escherichia coli [22]): 8 µg/mL (≈ 17.1 µM)
- MIC (Klebsiella pneumoniae [23]): 8 µg/mL (≈ 17.1 µM)
- MIC (Klebsiella pneumoniae [24]): > 8 µg/mL
- MIC (Citrobacter youngae): 8 µg/mL (≈ 17.1 µM)
- MIC (Escherichia coli [25]): 8 µg/mL (≈ 17.1 µM)
- MIC (Klebsiella pneumoniae [26]): > 8 µg/mL
- MIC (Escherichia coli [27]): > 8 µg/mL
- MIC (Enterobacter cloacae [28]): > 8 µg/mL
- MIC (Klebsiella pneumoniae [29]): 8 µg/mL (≈ 17.1 µM)
- MIC (Klebsiella pneumoniae [30]): 8 µg/mL (≈ 17.1 µM)
- MIC (Klebsiella oxytoca [31]): 8 µg/mL (≈ 17.1 µM)
- MIC (Escherichia coli [32]): 8 µg/mL (≈ 17.1 µM)
- MIC (Enterobacter cloacae [33]): > 8 µg/mL
- MIC (Klebsiella pneumoniae [34]): 8 µg/mL (≈ 17.1 µM)
- MIC (Escherichia coli [35]): 8 µg/mL (≈ 17.1 µM)
- MIC (Klebsiella oxytoca [36]): 8 µg/mL (≈ 17.1 µM)
- MIC (Klebsiella pneumoniae [37]): 8 µg/mL (≈ 17.1 µM)
